Assay results: patent US20240376092A1 (priority 2021, published 2024)
Like-named read-outs stand apart in the source and are kept apart here.

Assays:
[1] = test system: HEK293 cells expressing ΔCR PrP; assay: cells; assay type: cell-based; parameters: Emax: dose or concentration left out as unconfirmed; conditions: for Emax / Emax at 1 µM: HEK293, 48 h, read-out: % RMAX: maximum rescuing effect, expressed as percentage of the effect of SM3(LD24) at the same concentration; for IC50: HEK293, read-out: IC50 (rescuing dose at 50%)
[2] = test system: naive HEK293 cells; assay: Intrinsic toxicity in naive HEK293 cells (MTT); assay type: cell-based; conditions: 8-point dose-response curve, 48 h
From the text: FIG. 3. Dose-response analysis of selected compounds. (A) Chemical structures of the selected molecules are shown in panel. (B) A dose-response analysis using the DBCA was employed to evaluate the anti-ΔCR PrP effects of the different molecules. The graphs show a quantification of the dose-dependent, rescuing effect of each molecule. Average values were obtained from a minimum of 3 independent experiments (n≥3), and expressed as a percentage of cell viability in untreated cells. Data were fitted to a sigmoidal function using a 4-parameter logistic (4PL) non-linear regression model, allowing the estimation of the half-maximal inhibitory concentration (IC50). (C) The intrinsic toxicity of each compound was evaluated in naive HEK293 cells, exposed to each molecule/concentration for 48 h at 37° C. Cytotoxicity was evaluated by MTT. Average values were obtained from a minimum of 3 independent experiments (n≥3), and expressed as a percentage of cell viability in untreated cells. Data were fitted to an inverse sigmoidal function using a 4PL non-linear regression model, allowing the estimation of the half-maximal toxicity dose (LD50).
The DBCA was performed as described previously^24, with minor modifications. Briefly, HEK293 cells expressing ΔCR PrP were cultured at ˜60% confluence in 24-well plates on day 1. On day 2, cells were treated with 500 μg/mL of Zeocinfor. Medium (containing fresh Zeocin and/or compound or vehicle) was replaced every 24 hr. On day 5, cell medium was removed and cells were incubated with 1 mg/mL of 3-(4,5-dimethylthiazol-2-yl)-2,5-diphenyltetrazolium bromide (MTT, Sigma Aldrich, St. Louis, MO) in PBS for 30 min at 37° C. MTT was carefully removed, and cells were re-suspended in 500 μL of DMSO. Values for each well were obtained by measuring at 570 nm, using a plate spectrophotometer (Biotek).

[3] = test system: Fyn kinase; assay type: cell-based, mouse
[4] = test system: primary hippocampal neurons; assay type: cell-based, mouse
[5] = molecular target: T1, full-length human recombinant PrPC (Homo sapiens, UniProt P04156); assay type: binding; conditions: 0.1-1000 μM, highest concentration 1 mM
[6] = test system: PrPC; conditions: HEK293 WT PrPC, 48 hours
[7] = test system: PrPC; assay type: cell-based, mouse; conditions: especially in DC2
[8] = test system: DC2; assay type: cell-based, mouse
[9] = mouse, in vivo
[10] = test system: FXR; assay type: cell-based, mouse
[11] = in vitro; conditions: rat, microsomes
[12] = test system: M1000 prion strain; parameters: species or system mouse; conditions: slices treated with M1000 prion lysate
[13] = test system: cDC2; assay type: cell-based, mouse
[14] = molecular target: T1, full-length human recombinant PrPC; conditions: cited from earlier work

Compound | Emax [1] [%] | IC50 [1] [nM] | LD50 (lethal dose at 50%) [2] [µM] | also measured
O=C(CN1c2ccc(Br)cc2-c2ccccc2S1(=O)=O)NC1CCCCC1 [SM3, 2-(9-Bromo-5,5-dioxido-6H-dibenzo[c,e][1,2]thiazin-6-yl)-N-cyclohexylacetamide, reference compound] | 100 | 1100 | >100 | 
O=C(CN1c2cc(Br)ccc2-c2ccccc2S1(=O)=O)NC1CCCCC1 [SM228, 2-(8-Bromo-5,5-dioxido-6H-dibenzo[c,e][1,2]thiazin-6-yl)-N-cyclohexylacetamide] | 123 | 210 | 37.46 | 
O=C(CN1c2cccc(Br)c2-c2ccccc2S1(=O)=O)NC1CCCCC1 [SM229, 2-(10-bromo-5,5-dioxido-6H-dibenzo[c,e][1,2]thiazin-6-yl)-N-cyclohexylacetamide] | 121 | 250 | 28.21 | 
O=C(CN1c2ccc(C(F)(F)F)cc2-c2ccccc2S1(=O)=O)NC1CCCCC1 [SM231, N-cyclohexyl-2-[5,5-dioxido-9-(trifluoromethyl)-6H-dibenzo[c,e][1,2]thiazin-6-yl]acetamide] | 140 | 140 | 22.4 | effect on Aβ-induced Fyn phosphorylation [3]: completely abrogated Aβ effects; effect on Aβ-induced decrease of post-synaptic markers (GluN2A, GluN2B, GluA1, GluA2, PSD-95) [4]: significantly rescued the levels of all the post-synaptic markers; binding to recombinant PrPC by DMR [5]: no interaction was observed; total PrPC expression [6]: no difference in PrPC expression was found; PrPC level in DC1 and DC2 [7]: slightly increases; expansion of FoxP3+ LAP+ Treg cells by treated DC2 [8]: favor the expansion of T cells expressing Treg cell markers FoxP3 and LAP; EAE clinical score / disease severity [9]: reduced disease as compared to control mice; secretion of IL-17A and GM-CSF by CD4+ T cells from cervical lymph nodes re-stimulated with MOG [9]: reduced secretion of inflammatory cytokines; white matter demyelination and inflammatory infiltrates [9]: reduced; FXR transcriptional activity (FXR, Nr0b2 mRNA) [10]: promoted significant FXR transcriptional activity; half-life [11]: 25 min
O=C(CN1c2ccc(C(F)(F)F)cc2-c2ccc(F)cc2S1(=O)=O)NN1CCOCC1 [SM881, 2-[3-Fluoro-5,5-dioxido-9-(trifluoromethyl)-6H-dibenzo[c,e][1,2]thiazin-6-yl]-N-morpholin-4-ylacetamide] | 150 | 32 | >100 | 
O=C(CN1c2ccc(C(F)(F)F)cc2-c2ccc(F)cc2S1(=O)=O)NC1CCCCC1 [SM882, N-cyclohexyl-2-(3-fluoro-5,5-dioxido-9-(trifluoromethyl)-6H-dibenzo[c,e][1,2]thiazin-6-yl)acetamide] | 139 | 44 | >100 | 
CCOc1ccc2c(c1)S(=O)(=O)N(CC(=O)NC1CCCCC1)c1ccc(C(F)(F)F)cc1-2 [SM883, N-cyclohexyl-2-(3-ethoxy-5,5-dioxido-9-(trifluoromethyl)-6H-dibenzo[c,e][1,2]thiazin-6-yl)acetamide] | 166 | 14 | >100 | 
CCC(CC)NC(=O)CN1c2ccc(C(F)(F)F)cc2-c2ccc(F)cc2S1(=O)=O [SM884, N-(1-Ethylpropyl)-2-[3-fluoro-5,5-dioxido-9-(trifluoromethyl)-6H-dibenzo[c,e][1,2]thiazin-6-yl]acetamide] | 211 | 18 | >100 | rescue of long-term potentiation (LTP) ([12]; 0.03 μM): 71%; rescue of long-term potentiation (LTP) ([12]; 0.1 μM): 34%
O=C(CN1c2ccc(C(F)(F)F)cc2-c2ccc(F)cc2S1(=O)=O)NC1CCOCC1 [SM885, 2-[3-Fluoro-5,5-dioxido-9-(trifluoromethyl)-6H-dibenzo[c,e][1,2]thiazin-6-yl]-N-(tetrahydro-2H-pyran-4-yl)acetamide] | 123 | 53 | >100 | 
O=C(CN1c2ccc(C(F)(F)F)cc2-c2ccccc2S1(=O)=O)NC(CCO)CCO [SM887, 2-[5,5-dioxido-9-(trifluoromethyl)-6H-dibenzo[c,e][1,2]thiazin-6-yl]-N-[3-hydroxy-1-(2-hydroxyethyl)propyl]acetamide] |  |  |  | Emax at 1 µM [1]: ~50%; antigen-specific CD4+ T cell proliferation after cDC2 treatment [13]: significantly affected
O=C(CN1c2ccc(C(F)(F)F)cc2-c2ccc(F)cc2S1(=O)=O)NC(CCO)CCO [SM888, 2-[3-Fluoro-5,5-dioxido-9-(trifluoromethyl)-6H-dibenzo[c,e][1,2]thiazin-6-yl]-N-[3-hydroxy-1-(2-hydroxyethyl)propyl]acetamide] |  |  |  | Emax at 1 µM [1]: ~50%; antigen-specific CD4+ T cell proliferation after cDC2 treatment [13]: suppress antigen-specific CD4+ T cell proliferation
CCC(CN(C)C)NC(=O)CN1c2ccc(C(F)(F)F)cc2-c2ccc(F)cc2S1(=O)=O (centres unmarked) [SM889, N-{1-[(dimethylamino)methyl]propyl}-2-[3-fluoro-5,5-dioxido-9-(trifluoromethyl)-6H-dibenzo[c,e][1,2]thiazin-6-yl]acetamide] |  |  |  | Emax at 1 µM [1]: ~50%; antigen-specific CD4+ T cell proliferation after cDC2 treatment [13]: suppress antigen-specific CD4+ T cell proliferation
Fe(III)-TMPyP [reference compound] |  |  |  | effect on Aβ-induced Fyn phosphorylation [3]: prevented; effect on Aβ-induced decrease of post-synaptic markers (GluN2A, GluN2B, GluA1, GluA2, PSD-95) [4]: rescued; EAE clinical score / disease severity [9]: ameliorate EAE severity; affinity for PrPC, previously reported [14]: high
